Source: patent US12139520B2 (priority 2020, dated 2024)
Bridge positions count the residues as written; N and C are the ends. Square brackets hold non-standard residues; d marks the D form. Peptide text beside a SMILES is read from it. Hyp = O=C(O)[C@@H]1C[C@@H](O)CN1; Cit = NC(=O)NCCC[C@H](N)C(=O)O

Assays:
hAMY3 receptor = target: T1, hAMY3 receptor (Homo sapiens, UniProt O60896+P30988); test: cAMP assay for in vitro receptor activation, hAMY3-R; format: cell-based; conditions: cAMP assay, hAMY3 receptor; read-out: hAMY3R EC50
T1 sequence (P30988 25-474): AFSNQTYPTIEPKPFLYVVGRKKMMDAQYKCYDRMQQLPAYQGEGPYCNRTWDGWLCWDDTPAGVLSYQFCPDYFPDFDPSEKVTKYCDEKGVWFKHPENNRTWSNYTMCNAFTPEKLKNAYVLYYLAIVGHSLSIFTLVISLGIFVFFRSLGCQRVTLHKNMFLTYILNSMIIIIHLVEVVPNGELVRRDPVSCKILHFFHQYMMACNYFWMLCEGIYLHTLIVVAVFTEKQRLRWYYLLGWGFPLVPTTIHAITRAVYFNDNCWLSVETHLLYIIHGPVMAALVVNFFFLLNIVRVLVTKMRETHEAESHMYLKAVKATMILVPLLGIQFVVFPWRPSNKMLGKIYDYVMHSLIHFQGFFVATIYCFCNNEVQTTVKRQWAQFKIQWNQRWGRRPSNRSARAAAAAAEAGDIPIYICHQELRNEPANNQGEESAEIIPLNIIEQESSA
T1 sequence (O60896 24-148 partner): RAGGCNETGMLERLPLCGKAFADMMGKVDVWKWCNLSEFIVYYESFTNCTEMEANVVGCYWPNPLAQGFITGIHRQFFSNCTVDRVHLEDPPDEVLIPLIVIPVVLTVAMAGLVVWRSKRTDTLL
Summary of the method: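 Monoclonal cell line stably overexpressing human AMY3 receptor, 2000 cells/well in DPBS with 0.05% casein and 0.5 mM IBMX. Stimulated 30 min at room temperature with graded compound doses, human amylin as positive control. cAMP accumulation read by TR-FRET after one hour.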

[1] = Physical stability of peptide analogues (Thioflavin T fibrillation); format: physicochemical; conditions: maximum ThT signal normalized between hAMY maximum and buffer background; 40° C., shaking, four days; pH 7 per table title
Summary of the method: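 1 h in 50 mM NaOAc pH 4 / 50 mM NaPi pH 7; + ThT 4 μM final; 40 °C, 700 rpm linear shake 5 min pre-read; ex 450, em 480 nm q10 min × 4 d; LOESS smoothing; max signal normalised to hAMY max vs buffer blank.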

Row | Structure (SMILES) | EC50 (hAMY3 receptor) [nM] | Max ThT signal (%) [1] [%]
1 | CC[C@H](C)[C@H](NC(=O)[C@H](CCC(N)=O)NC(=O)[C@H](Cc1c[nH]cn1)NC(=O)[C@H](C)NC(=O)[C@H](CC(C)C)NC(=O)[C@H](CCCNC(=N)N)NC(=O)[C@H](CCC(N)=O)NC(=O)[C@@H](NC(=O)[C@@H](NC(=O)[C@@H]1CSSC[C@H](NC(=O)CN)C(=O)N[C@@H](CCCNC(=N)N)C(=O)N[C@@H]([C@@H](C)O)C(=O)NCC(=O)N[C@@H]([C@@H](C)O)C(=O)N1)[C@@H](C)O)C(C)C)C(=O)N[C@@H](Cc1ccc(O)cc1)C(=O)N[C@@H](CCC(N)=O)C(=O)N[C@@H](Cc1ccccc1)C(=O)N[C@H](C(=O)N[C@@H](CC(=O)O)C(=O)N[C@@H](CCCCN)C(=O)N[C@@H](Cc1ccccc1)C(=O)N[C@@H](CCCCN)C(=O)N[C@@H](CC(=O)O)C(=O)N[C@@H](CC(N)=O)C(=O)N[C@H](C(=O)N[C@@H](C)C(=O)N1CCC[C@H]1C(=O)N[C@@H](CCCNC(=N)N)C(=O)N[C@@H](CO)C(=O)N[C@@H](CCCCN)C(=O)N[C@H](C(=O)N[C@@H](CO)C(=O)N1CCC[C@H]1C(=O)N[C@@H](CCC(N)=O)C(=O)N[C@@H](Cc1c[nH]cn1)C(=O)N1C[C@H](O)C[C@H]1C(N)=O)[C@@H](C)CC)C(C)C)[C@@H](C)O [compound 201] (H-GCRTGTCTVQRLAHQIYQFTDKFKDNVAPRSKISPQH[Hyp]-NH2; disulfide 2-7; N-terminus assumed) | 0.126 | 1.000
2 | CC[C@H](C)[C@H](NC(=O)[C@H](CCCCN)NC(=O)[C@H](CO)NC(=O)[C@H](CCCNC(=N)N)NC(=O)[C@@H]1CCCN1C(=O)[C@H](C)NC(=O)[C@@H](NC(=O)[C@H](CC(N)=O)NC(=O)[C@H](CC(=O)O)NC(=O)[C@H](CCCCN)NC(=O)[C@H](CC(=O)O)NC(=O)[C@H](CCCCN)NC(=O)[C@H](CC(=O)O)NC(=O)[C@@H](NC(=O)[C@H](Cc1ccccc1)NC(=O)[C@H](CCC(N)=O)NC(=O)[C@H](Cc1ccc(O)cc1)NC(=O)[C@@H](NC(=O)[C@H](CCC(N)=O)NC(=O)[C@H](Cc1c[nH]cn1)NC(=O)[C@H](C)NC(=O)[C@H](CC(C)C)NC(=O)[C@H](CCCNC(N)=O)NC(=O)[C@H](CCC(N)=O)NC(=O)[C@@H](NC(=O)[C@@H](NC(=O)[C@@H]1CSSC[C@H](NC(=O)CN)C(=O)N[C@@H](CCCNC(=N)N)C(=O)N[C@@H](Cc2ccccc2)C(=O)NCC(=O)N[C@@H]([C@@H](C)O)C(=O)N1)[C@@H](C)O)C(C)C)[C@@H](C)CC)[C@@H](C)O)C(C)C)C(=O)NCC(=O)N1CCC[C@H]1C(=O)N[C@@H](CCC(N)=O)C(=O)NCC(=O)N1C[C@H](O)C[C@H]1C(N)=O [compound 284] (H-GCRFGTCTVQ[Cit]LAHQIYQFTDKDKDNVAPRSKIGPQG[Hyp]-NH2; disulfide 2-7) | 0.028 | 21.300
3 | CC[C@H](C)[C@H](NC(=O)[C@H](CCC(N)=O)NC(=O)[C@H](Cc1c[nH]cn1)NC(=O)[C@H](C)NC(=O)[C@H](CC(C)C)NC(=O)[C@H](CCCNC(N)=O)NC(=O)[C@H](CCC(N)=O)NC(=O)[C@@H](NC(=O)[C@@H](NC(=O)[C@@H]1CSSC[C@H](NC(=O)CN)C(=O)N[C@@H](CCCNC(=N)N)C(=O)N[C@@H]([C@@H](C)O)C(=O)NCC(=O)N[C@@H]([C@@H](C)O)C(=O)N1)[C@@H](C)O)C(C)C)C(=O)N[C@@H](Cc1ccc(O)cc1)C(=O)N[C@@H](CCC(N)=O)C(=O)N[C@@H](Cc1ccccc1)C(=O)N[C@H](C(=O)N[C@@H](CC(=O)O)C(=O)N[C@@H](CCCCN)C(=O)N[C@@H](CC(=O)O)C(=O)N[C@@H](CCCCN)C(=O)N[C@@H](CC(=O)O)C(=O)N[C@@H](CC(N)=O)C(=O)N[C@H](C(=O)N[C@@H](C)C(=O)N1CCC[C@H]1C(=O)N[C@@H](CCCNC(=N)N)C(=O)N[C@H](C(=O)N[C@@H](CC(N)=O)C(=O)N[C@H](C(=O)N[C@@H](CO)C(=O)N1CCC[C@H]1C(=O)N[C@@H](CC(N)=O)C(=O)NCC(=O)N1C[C@H](O)C[C@H]1C(N)=O)C(C)C)[C@@H](C)O)C(C)C)[C@@H](C)O [compound 302] (H-GCRTGTCTVQ[Cit]LAHQIYQFTDKDKDNVAPRTNVSPNG[Hyp]-NH2; disulfide 2-7; N-terminus assumed) | 0.071 | 24.250
4 | CC[C@H](C)[C@H](NC(=O)[C@H](CCC(N)=O)NC(=O)[C@H](Cc1c[nH]cn1)NC(=O)[C@H](C)NC(=O)[C@H](CC(C)C)NC(=O)[C@H](CCCNC(=N)N)NC(=O)[C@H](CCC(N)=O)NC(=O)[C@@H](NC(=O)[C@@H](NC(=O)[C@@H]1CSSC[C@H](NC(=O)CN)C(=O)N[C@@H](CCCNC(=N)N)C(=O)N[C@@H]([C@@H](C)O)C(=O)NCC(=O)N[C@@H]([C@@H](C)O)C(=O)N1)[C@@H](C)O)C(C)C)C(=O)N[C@@H](Cc1ccc(O)cc1)C(=O)N[C@@H](CCC(N)=O)C(=O)N[C@@H](Cc1ccccc1)C(=O)N[C@H](C(=O)N[C@@H](CC(=O)O)C(=O)N[C@@H](CCCCN)C(=O)N[C@@H](CC(=O)O)C(=O)N[C@@H](CCCCN)C(=O)N[C@@H](CC(=O)O)C(=O)N[C@@H](CC(N)=O)C(=O)N[C@H](C(=O)N[C@@H](C)C(=O)N1CCC[C@H]1C(=O)N[C@@H](CCCNC(=N)N)C(=O)N[C@H](C(=O)N[C@@H](CC(N)=O)C(=O)N[C@H](C(=O)N[C@@H](CO)C(=O)N1CCC[C@H]1C(=O)N[C@@H](CCC(N)=O)C(=O)NCC(=O)N[C@@H](Cc1ccc(O)cc1)C(N)=O)C(C)C)[C@@H](C)O)C(C)C)[C@@H](C)O [compound 176] (H-GCRTGTCTVQRLAHQIYQFTDKDKDNVAPRTNVSPQGY-NH2; disulfide 2-7; N-terminus assumed) | 0.076 | 6.800
5 | CC[C@H](C)[C@H](NC(=O)[C@H](CCC(N)=O)NC(=O)[C@H](Cc1c[nH]cn1)NC(=O)[C@H](C)NC(=O)[C@H](CC(C)C)NC(=O)[C@H](CCCNC(=N)N)NC(=O)[C@H](CCC(N)=O)NC(=O)[C@@H](NC(=O)[C@@H](NC(=O)[C@@H]1CSSC[C@H](NC(=O)CN)C(=O)N[C@@H](CCCNC(=N)N)C(=O)N[C@@H]([C@@H](C)O)C(=O)NCC(=O)N[C@@H]([C@@H](C)O)C(=O)N1)[C@@H](C)O)C(C)C)C(=O)N[C@@H](Cc1ccc(O)cc1)C(=O)N[C@@H](CCC(N)=O)C(=O)N[C@@H](Cc1ccccc1)C(=O)N[C@H](C(=O)N[C@@H](CC(=O)O)C(=O)N[C@@H](CCCCN)C(=O)N[C@@H](CC(=O)O)C(=O)N[C@@H](CCCCN)C(=O)N[C@@H](CC(=O)O)C(=O)N[C@@H](CC(N)=O)C(=O)N[C@H](C(=O)N[C@@H](C)C(=O)N1CCC[C@H]1C(=O)N[C@@H](CCCNC(=N)N)C(=O)N[C@@H](CO)C(=O)N[C@@H](CCCCN)C(=O)N[C@H](C(=O)NCC(=O)N1CCC[C@H]1C(=O)N[C@@H](CCC(N)=O)C(=O)NCC(=O)N[C@@H](Cc1ccc(O)cc1)C(N)=O)C(C)C)C(C)C)[C@@H](C)O [compound 129] (H-GCRTGTCTVQRLAHQIYQFTDKDKDNVAPRSKVGPQGY-NH2; disulfide 2-7) | 0.029 | 1.400
6 | CC[C@H](C)[C@H](NC(=O)[C@H](CCC(N)=O)NC(=O)[C@H](Cc1c[nH]cn1)NC(=O)[C@H](C)NC(=O)[C@H](CC(C)C)NC(=O)[C@H](CCCNC(=N)N)NC(=O)[C@H](CCC(N)=O)NC(=O)[C@@H](NC(=O)[C@@H](NC(=O)[C@@H]1CSSC[C@H](NC(=O)[C@@H](N)CCCCN)C(=O)N[C@@H](CCCNC(=N)N)C(=O)N[C@@H](CCSC)C(=O)NCC(=O)N[C@@H]([C@@H](C)O)C(=O)N1)[C@@H](C)O)C(C)C)C(=O)N[C@@H](Cc1ccc(O)cc1)C(=O)N[C@@H](CCC(N)=O)C(=O)N[C@@H](Cc1ccccc1)C(=O)N[C@H](C(=O)N[C@@H](CC(=O)O)C(=O)N[C@@H](CCCCN)C(=O)N[C@@H](CC(=O)O)C(=O)N[C@@H](CCCCN)C(=O)N[C@@H](CC(=O)O)C(=O)N[C@@H](CC(N)=O)C(=O)N[C@H](C(=O)N[C@@H](C)C(=O)N1CCC[C@H]1C(=O)N[C@@H](CCCNC(=N)N)C(=O)N[C@@H](CO)C(=O)N[C@@H](CCCCN)C(=O)N[C@H](C(=O)N[C@@H](CO)C(=O)N1CCC[C@H]1C(=O)N[C@@H](CCC(N)=O)C(=O)N[C@H](C(=O)N1C[C@H](O)C[C@H]1C(N)=O)[C@@H](C)O)[C@@H](C)CC)C(C)C)[C@@H](C)O [compound 194] (H-KCRMGTCTVQRLAHQIYQFTDKDKDNVAPRSKISPQT[Hyp]-NH2; disulfide 2-7; N-terminus assumed) | 0.112 | 6.000
